# “And” between values parts separate entries of the source, which are not always exact repeats. Equal entries are not always repeated. Toxic doses and inconclusive results are not listed.
# Test system: CD2F1 mice, L1210 leukemia ip, survival T/C
# Assay: NCI In Vivo Anticancer Drug Screen. Data for tumor model L1210 Leukemia (intraperitoneal) in CD2F1 (CDF1) mice
# Settings: higher = longer survival
# Method in brief: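 Implant tumor; dose compound or vehicle; measure endpoint in both groups; report treated divided by control.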
# [1] = endpoint: mean survival time, dose: 100.0 mg/kg/injection, schedule: Q01DX001 (ip), vehicle: saline with Tween-80
# [2] = endpoint: mean survival time, dose: 100.0 mg/kg/injection, schedule: Q01DX001 (ip), vehicle: saline
structure (smiles),measurement,setting,value
CC(COP(N)(=O)N(CCCl)CCCl)C(C)OCc1ccccc1 (stereo unspecified),T/C,"endpoint: mean survival time, dose: 15.62 mg/kg/injection, schedule: Q01DX001 (ip), vehicle: DMSO",101 % of control
same,T/C,"endpoint: mean survival time, dose: 31.3 mg/kg/injection, schedule: Q01DX001 (ip), vehicle: DMSO",106 % of control
same,T/C,"endpoint: mean survival time, dose: 62.5 mg/kg/injection, schedule: Q01DX001 (ip), vehicle: DMSO",101 % of control
same,T/C,"endpoint: mean survival time, dose: 125.0 mg/kg/injection, schedule: Q01DX001 (ip), vehicle: DMSO",103 % of control
same,T/C,"endpoint: mean survival time, dose: 250.0 mg/kg/injection, schedule: Q01DX001 (ip), vehicle: DMSO",95 % of control
same,T/C,"endpoint: mean survival time, dose: 500.0 mg/kg/injection, schedule: Q01DX001 (ip), vehicle: DMSO",93 % of control
CCC1(C)CCC2(C)C(CCC3C(C)(CO)CCCC32O)C1 (stereo unspecified),T/C,[1],98 % of control
same,T/C,"endpoint: mean survival time, dose: 200.0 mg/kg/injection, schedule: Q01DX001 (ip), vehicle: saline with Tween-80",94 % of control
same,T/C,"endpoint: mean survival time, dose: 400.0 mg/kg/injection, schedule: Q01DX001 (ip), vehicle: saline with Tween-80",98 % of control
CCCCCC(=O)N1CCCCCC1,T/C,"endpoint: mean survival time, dose: 100.0 mg/kg/injection, schedule: Q04DX003 (ip), vehicle: saline",96 % of control
same,T/C,"endpoint: mean survival time, dose: 200.0 mg/kg/injection, schedule: Q04DX003 (ip), vehicle: saline",98 % of control
same,T/C,"endpoint: mean survival time, dose: 400.0 mg/kg/injection, schedule: Q04DX003 (ip), vehicle: saline",98 % of control
C=C(C)CSc1ccccc1,T/C,"endpoint: mean survival time, dose: 5.0 mg/kg/injection, schedule: Q01DX001 (ip), vehicle: saline",97 % of control
same,T/C,"endpoint: mean survival time, dose: 10.0 mg/kg/injection, schedule: Q01DX001 (ip), vehicle: saline",97 % of control
same,T/C,"endpoint: mean survival time, dose: 20.0 mg/kg/injection, schedule: Q01DX001 (ip), vehicle: saline",97 % of control
same,T/C,"endpoint: mean survival time, dose: 40.0 mg/kg/injection, schedule: Q01DX001 (ip), vehicle: saline",97 % of control
same,T/C,"endpoint: mean survival time, dose: 80.0 mg/kg/injection, schedule: Q01DX001 (ip), vehicle: saline",97 % of control
same,T/C,[2],95 % of control
same,T/C,"endpoint: mean survival time, dose: 200.0 mg/kg/injection, schedule: Q01DX001 (ip), vehicle: saline",103 % of control
CCOC(=O)c1cc(C[N+](C)(C)C)oc1C,T/C,"endpoint: mean survival time, dose: 25.0 mg/kg/injection, schedule: Q01DX001 (ip), vehicle: saline",96 % of control
same,T/C,"endpoint: mean survival time, dose: 50.0 mg/kg/injection, schedule: Q01DX001 (ip), vehicle: saline",102 % of control
same,T/C,[1],106 % of control
same,T/C,[2],98 % of control
O=C(Nc1cccc2c(OC(=O)C(Cl)Cl)c(N=Nc3ccc(S(=O)(=O)Nc4nccs4)cc3)cc(N=Nc3ccc(S(=O)(=O)Nc4nccs4)cc3)c12)C(Cl)Cl (tested in a mixture with another compound),T/C,"endpoint: mean survival time, dose: 3.12 mg/kg/injection, schedule: Q01DX009 (ip), vehicle: saline with Tween-80",96 % of control and 101 % of control
same,T/C,"endpoint: mean survival time, dose: 6.25 mg/kg/injection, schedule: Q01DX009 (ip), vehicle: saline with Tween-80",95 % of control and 101 % of control
same,T/C,"endpoint: mean survival time, dose: 12.5 mg/kg/injection, schedule: Q01DX009 (ip), vehicle: saline with Tween-80",96 % of control and 102 % of control
same,T/C,"endpoint: mean survival time, dose: 25.0 mg/kg/injection, schedule: Q01DX009 (ip), vehicle: saline with Tween-80",101 % of control and 106 % of control
same,T/C,"endpoint: mean survival time, dose: 50.0 mg/kg/injection, schedule: Q01DX009 (ip), vehicle: saline with Tween-80",101 % of control and 110 % of control
same,T/C,"endpoint: mean survival time, dose: 100.0 mg/kg/injection, schedule: Q01DX009 (ip), vehicle: saline with Tween-80",113 % of control and 112 % of control
same,T/C,"endpoint: median survival time, dose: 100.0 mg/kg/injection, schedule: Q01DX009 (ip), vehicle: saline with Tween-80",113 % of control
same,T/C,"endpoint: median survival time, dose: 200.0 mg/kg/injection, schedule: Q01DX009 (ip), vehicle: saline with Tween-80",106 % of control
same,T/C,"endpoint: median survival time, dose: 400.0 mg/kg/injection, schedule: Q01DX009 (ip), vehicle: saline with Tween-80",100 % of control
O=C(C=C(C(F)(F)F)C(F)(F)F)c1ccco1,T/C,"endpoint: mean survival time, dose: 12.5 mg/kg/injection, schedule: Q04DX003 (ip), vehicle: saline with Tween-80",105 % of control
same,T/C,"endpoint: mean survival time, dose: 25.0 mg/kg/injection, schedule: Q04DX003 (ip), vehicle: saline with Tween-80",102 % of control
same,T/C,"endpoint: mean survival time, dose: 50.0 mg/kg/injection, schedule: Q04DX003 (ip), vehicle: saline with Tween-80",94 % of control
CC(C)=CC(=O)OC1C2C(C)=CC(=O)C(O)C2(C)C2C3(O)OCC24C(CC(=O)OC14)C(C)C3O (stereo unspecified),T/C,"endpoint: mean survival time, dose: 0.25 mg/kg/injection, schedule: Q01DX009 (ip), vehicle: distilled water + Tween-80",110 % of control
same,T/C,"endpoint: mean survival time, dose: 0.5 mg/kg/injection, schedule: Q01DX009 (ip), vehicle: distilled water + Tween-80",124 % of control
same,T/C,"endpoint: mean survival time, dose: 1.0 mg/kg/injection, schedule: Q01DX009 (ip), vehicle: distilled water + Tween-80",112 % of control
same,T/C,"endpoint: mean survival time, dose: 2.0 mg/kg/injection, schedule: Q01DX009 (ip), vehicle: saline with Tween-80",151 % of control
same,T/C,"endpoint: median survival time, dose: 0.25 mg/kg/injection, schedule: Q01DX009 (ip), vehicle: distilled water + Tween-80 + alcohol",122 % of control
same,T/C,"endpoint: median survival time, dose: 0.5 mg/kg/injection, schedule: Q01DX009 (ip), vehicle: distilled water + Tween-80 + alcohol",124 % of control
same,T/C,"endpoint: median survival time, dose: 2.0 mg/kg/injection, schedule: Q01DX009 (ip), vehicle: distilled water + Tween-80 + alcohol",153 % of control
O=C(c1ccc([N+](=O)[O-])cc1)n1ncc2ccccc21,T/C,"endpoint: median survival time, dose: 25.0 mg/kg/injection, schedule: Q04DX002 (ip), vehicle: saline with Tween-80",100 % of control
same,T/C,"endpoint: median survival time, dose: 50.0 mg/kg/injection, schedule: Q04DX002 (ip), vehicle: saline with Tween-80",100 % of control
same,T/C,"endpoint: median survival time, dose: 100.0 mg/kg/injection, schedule: Q04DX002 (ip), vehicle: saline with Tween-80",100 % of control
same,T/C,"endpoint: median survival time, dose: 200.0 mg/kg/injection, schedule: Q04DX002 (ip), vehicle: saline with Tween-80",100 % of control

# Reference: PubChem BioAssay AID256 (DTP/NCI, 2004)
